Measurements as given in patent US20160090556A1, “PRODUCTS COMPRISING MALODOR REDUCTION MATERIALS” (The Procter & Gamble Company, priority 2014, published 2016).
Like-named read-outs stand apart in the source and are kept apart here.

Assay: Liquid dish neat product liquid-air partition coefficient
Format: physicochemical
[1] = class code letter within Comment Code

SMILES	Log of liquid dish neat product liquid-air partition coefficient (Comment Code K/L)	Log of liquid dish neat product liquid-air partition coefficient (Comment Code K/L) [1]	Comment Code: Log of liquid dish neat product liquid-air partition coefficient (code letters K, L)	further results
CC1(O)CCC2=C(CCCC2(C)C)C1 (stereo not drawn) [Material 676]	K (Log of liquid dish neat product liquid-air partition coefficient greater than or equal to −7)	–	–	–
CCOC(C)OC1CCCCCCCCCCC1 (stereo not drawn) [Material 363]	–	K (Log of liquid dish neat product liquid-air partition coefficient greater than or equal to −7)	–	–
CCCCCCCCC1CCC(=O)O1 (stereo not drawn) [Material 330]	–	K (Log of liquid dish neat product liquid-air partition coefficient greater than or equal to −7)	–	–
CCC(C)=CCCC(C)=CC#N [Material 158]	–	K (Log of liquid dish neat product liquid-air partition coefficient greater than or equal to −7)	–	–
C/C=C1/CC2CC1C1CCC(=O)OC21 (stereo not drawn) [Material 353]	–	K (Log of liquid dish neat product liquid-air partition coefficient greater than or equal to −7)	K (Log of liquid dish neat product liquid-air partition coefficient greater than or equal to −7)	–
CC(C)=CCCC(C)=CCCc1ccncc1 [Material 135]	–	K (Log of liquid dish neat product liquid-air partition coefficient greater than or equal to −7)	–	–
C=CC(C)(CCC=C(C)C)OC(=O)C(C)C (stereo not drawn) [Material 149]	–	K (Log of liquid dish neat product liquid-air partition coefficient greater than or equal to −7)	–	–
CCCCCCCCCCCCOC(C)=O [Material 175]	–	K (Log of liquid dish neat product liquid-air partition coefficient greater than or equal to −7)	–	–
CCOC(=O)C1C2C=CC(C2)C1C(C)C (stereo not drawn) [Material 280]	–	K (Log of liquid dish neat product liquid-air partition coefficient greater than or equal to −7)	–	–
CC1OCC(c2ccccc2)O1 (stereo not drawn) [Material 190]	–	K (Log of liquid dish neat product liquid-air partition coefficient greater than or equal to −7)	–	–
CC1=CCCC2(C)CCC(C(C)(C)O)CC12 (stereo not drawn) [Material 712]	K (Log of liquid dish neat product liquid-air partition coefficient greater than or equal to −7)	–	K (Log of liquid dish neat product liquid-air partition coefficient greater than or equal to −7)	–
C=CCCCCCCCCC#N [Material 352]	–	K (Log of liquid dish neat product liquid-air partition coefficient greater than or equal to −7)	–	–
CCCCCCOC(=O)c1ccco1 [Material 275]	–	–	K (Log of liquid dish neat product liquid-air partition coefficient greater than or equal to −7)	–
CC(CO)CCCc1ccccc1 (stereo not drawn) [Material 1012]	K (Log of liquid dish neat product liquid-air partition coefficient greater than or equal to −7)	–	–	–
CCC(=O)OCC=Cc1ccccc1 [Material 548]	–	K (Log of liquid dish neat product liquid-air partition coefficient greater than or equal to −7)	–	–
CCOC(C=C(C)CCC=C(C)C)OCC [Material 521]	–	K (Log of liquid dish neat product liquid-air partition coefficient greater than or equal to −7)	–	–
C=C1C=CC(C(C)CCC=C(C)C)CC1 (stereo not drawn) [Material 614]	K (Log of liquid dish neat product liquid-air partition coefficient greater than or equal to −7)	–	–	–
CCCCCOC(=O)C=Cc1ccccc1 [Material 671]	K (Log of liquid dish neat product liquid-air partition coefficient greater than or equal to −7)	–	–	–
CC(=O)OC(C)CC(C)(C)c1ccccc1 (stereo not drawn) [Material 1134]	–	–	K (Log of liquid dish neat product liquid-air partition coefficient greater than or equal to −7)	–
CCCC(O)Cc1ccccc1 (stereo not drawn) [Material 730]	K (Log of liquid dish neat product liquid-air partition coefficient greater than or equal to −7)	–	–	–
CCCCCCCCCC/C=C\C#N [Material 11]	–	K (Log of liquid dish neat product liquid-air partition coefficient greater than or equal to −7)	–	–
CCOC1CCC(C(C)(C)CC)CC1 (stereo not drawn) [Material 12]	–	–	K (Log of liquid dish neat product liquid-air partition coefficient greater than or equal to −7)	–
CCC(=O)C=CC1C(C)=CCCC1(C)C (stereo not drawn) [Material 700]	K (Log of liquid dish neat product liquid-air partition coefficient greater than or equal to −7)	–	–	–
CC(C=O)=Cc1ccccc1 [Material 701]	–	–	K (Log of liquid dish neat product liquid-air partition coefficient greater than or equal to −7)	–
CC(C)=CCCC(C)=CC1OCC(C)O1 (stereo not drawn) [Material 519]	–	K (Log of liquid dish neat product liquid-air partition coefficient greater than or equal to −7)	–	–

SMILES	Log of liquid dish neat product liquid-air partition coefficient (Comment Code K/L)	Log of liquid dish neat product liquid-air partition coefficient (Comment Code K/L) [1]	Comment Code: Log of liquid dish neat product liquid-air partition coefficient (code letters K, L)	further results
C=CCc1ccc(OC)cc1 [Material 119]	–	K (Log of liquid dish neat product liquid-air partition coefficient greater than or equal to −7)	–	–
C=C(C)C1CC=C(C)C(O)C1 (stereo not drawn) [Material 531]	–	K (Log of liquid dish neat product liquid-air partition coefficient greater than or equal to −7)	–	–
CC12CCC(C(=O)C1=O)C2(C)C (stereo not drawn) [Material 587]	K (Log of liquid dish neat product liquid-air partition coefficient greater than or equal to −7)	–	–	–
CC(=O)C(C)=CC1C(C)=CCCC1(C)C (stereo not drawn) [Material 703]	–	–	K (Log of liquid dish neat product liquid-air partition coefficient greater than or equal to −7)	–
CC(C)c1ccc2ncccc2c1 [Material 778]	K (Log of liquid dish neat product liquid-air partition coefficient greater than or equal to −7)	–	–	–
C=C1C2CCC(C)(OCC)C1CCC2(C)C (stereo not drawn) [Material 606]	K (Log of liquid dish neat product liquid-air partition coefficient greater than or equal to −7)	–	–	–
C=CCc1cc(OC)c2c(c1)OCO2 [Material 37]	–	K (Log of liquid dish neat product liquid-air partition coefficient greater than or equal to −7)	–	–
C=CCOC(=O)COC1CCCCC1 [Material 918]	–	–	K (Log of liquid dish neat product liquid-air partition coefficient greater than or equal to −7)	–
CC1=CC[C@@H]2[C@@]3(C)CCCC(C)(C)[C@@H]3CC[C@@]2(C)O1 [Material 1029]	K (Log of liquid dish neat product liquid-air partition coefficient greater than or equal to −7)	–	K (Log of liquid dish neat product liquid-air partition coefficient greater than or equal to −7)	–
CCc1ccccc1CC(C)(C)C=O [Material 356]	–	K (Log of liquid dish neat product liquid-air partition coefficient greater than or equal to −7)	–	–
CC(C)c1ccc(CC=O)cc1 [Material 977]	–	–	K (Log of liquid dish neat product liquid-air partition coefficient greater than or equal to −7)	–
C=CC(C)(CCC=C(C)C)OC(C)OCC (stereo not drawn) [Material 916]	K (Log of liquid dish neat product liquid-air partition coefficient greater than or equal to −7)	–	–	–
CCCCCCC(=O)OCc1ccco1 [Material 339]	–	K (Log of liquid dish neat product liquid-air partition coefficient greater than or equal to −7)	–	–
C/C=C(\C)C(=O)OCC/C=C\CC [Material 536]	–	–	K (Log of liquid dish neat product liquid-air partition coefficient greater than or equal to −7)	–
C=CCOC(=O)COc1ccccc1 [Material 743]	–	–	K (Log of liquid dish neat product liquid-air partition coefficient greater than or equal to −7)	–
CC1=CCC(CCC(C)CO)C1(C)C (stereo not drawn) [Material 600]	K (Log of liquid dish neat product liquid-air partition coefficient greater than or equal to −7)	–	–	–
C=CC1(C)CCC(C(C)(C)O)O1 (stereo not drawn) [Material 156]	–	K (Log of liquid dish neat product liquid-air partition coefficient greater than or equal to −7)	–	–
C[C@@H]1CCC=C2CC[C@@H](C(C)(C)O)C[C@]21C [Material 1107]	K (Log of liquid dish neat product liquid-air partition coefficient greater than or equal to −7)	–	K (Log of liquid dish neat product liquid-air partition coefficient greater than or equal to −7)	–
CC(=CCC1CC=C(C)C1(C)C)CO (stereo not drawn) [Material 1025]	K (Log of liquid dish neat product liquid-air partition coefficient greater than or equal to −7)	–	–	–
CCCC(=O)OC(C)(C)Cc1ccccc1 [Material 432]	–	K (Log of liquid dish neat product liquid-air partition coefficient greater than or equal to −7)	–	–
CC(C)C1CCC(CO)CC1 (stereo not drawn) [Material 133]	–	–	K (Log of liquid dish neat product liquid-air partition coefficient greater than or equal to −7)	–
CC1(C)C2CCC3(C2)C1C1(CCC3(C)C)OCCO1 (stereo not drawn) [Material 1144]	–	–	K (Log of liquid dish neat product liquid-air partition coefficient greater than or equal to −7)	Comment Code: Log of liquid dish neat product liquid-air partition coefficient (codes K/L of the Comment Code, Table 1): K (Log of liquid dish neat product liquid-air partition coefficient greater than or equal to −7)
CC(C)CC(=O)OCc1ccccc1 [Material 645]	–	–	K (Log of liquid dish neat product liquid-air partition coefficient greater than or equal to −7)	–
Cc1ccc(C(C)(C)O)cc1 [Material 4]	–	K (Log of liquid dish neat product liquid-air partition coefficient greater than or equal to −7)	–	–
